Read-outs that look alike come from different tables or passages of the source.
Tests used:
[1] = target: recombinant human Mcl-1 (residues 171-327) / Bim interaction (Homo sapiens (Human), UniProt Q07820); assay: biochemical; format: binding; conditions: read-out: Mcl-1 HTRF IC50
[2] = tested on: human multiple myeloma cell line, OPM-2; assay: Cell viability assay (OPM-2 10 FBS), CellTiter-Glo; format: cell-based
Method in brief: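 Serially diluted test compounds are incubated 16 h with cells (3000/well) in RPMI 1640 supplemented with 10% FBS. Viability is then measured by luminescence and IC50 calculated by 4-parameter logistic fit.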

[3] = TR-FRET, Mcl-1(171-327) / biotin-Bim (51-76)
[4] = Homo sapiens, OPM-2, 16 h, read-out: OPM-2 10% FBS IC50 IP, OPM-2 cells, 10% FBS, 16 h, CellTiter-Glo
[5] = 0.1 nM Mcl-1(171-327), 0.05 nM biotin-Bim (51-76)
[6] = Homo sapiens, OPM-2, 16 h, read-out: OPM-2 10% FBS IC50 IP, OPM-2 cells, 10% FBS, 16 h incubation

Chain of recombinant human Mcl-1 (residues 171-327) / Bim interaction (Q07820 171-327): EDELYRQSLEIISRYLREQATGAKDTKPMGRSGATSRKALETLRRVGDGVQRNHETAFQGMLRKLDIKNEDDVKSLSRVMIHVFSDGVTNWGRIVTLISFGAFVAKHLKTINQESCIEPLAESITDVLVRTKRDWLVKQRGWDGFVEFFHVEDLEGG

Row | SMILES | IC50 [1, 3] | IC50 [2, 4] | IC50 [1, 5] | other results
1 | C[C@@H]1CS(=O)(=O)NC(=O)c2ccc3c(c2)N(C[C@@H]2CC[C@H]2[C@](O)(C2SCCCS2)/C=C/[C@@H]1C)C[C@@]1(CCCc2cc(Cl)ccc21)CO3 [Example 100566, (1S,3′R,6′R,7′S,8′E,10′S,11′S)-6-chloro-7′-(1,3-dithian-2-yl)-7′-hydroxy-10′,11′-dimethyl-3,4-dihydro-2H,15′H-spiro[naphthalene-1,22′-[20]oxa[13]thia[1,14]diazatetracyclo [14.7.2.0~3,6~.0~19,24~]pentacosa[8,16,18,24]tetraen]-15′-one 13′,13′-dioxide] | 0.142 nM | 590 nM | – | –
2 | C[C@H](C(=O)O)[C@@]1(O)/C=C/C[C@H](C)[C@@H](C)S(=O)(=O)NC(=O)c2ccc3c(c2)N(C[C@@H]2CC[C@H]21)C[C@@]1(CCCc2cc(Cl)ccc21)CO3 (single isomer, unassigned) [Example 100122] | 0.098 nM | – | – | IC50 ([2]; read-out: OPM-2 10% FBS IC50 IP, OPM-2 cells, 10% FBS, 16 h, CellTiter-Glo): 1190 nM
3 | CCOC(=O)CN1CCN(C[C@]2(OC)/C=C/C[C@H](C)[C@@H](C)S(=O)(=O)NC(=O)c3ccc4c(c3)N(C[C@@H]3CC[C@H]32)C[C@@]2(CCCc3cc(Cl)ccc32)CO4)CC1 [Example 261, ethyl (4-(((1S,3′R,6′R,7′S,8′E,11′S, 12′R)-6-chloro-7′-methoxy-11′,12′-dimethyl-13′,13′-dioxido-15′-oxo-3,4-dihydro-2H-spiro[naphthalene-1,22′-[20]oxa[13]thia[1,14]diazatetracyclo [14.7.2.0~3,6~.0~19,24~]pentacosa[8,16,18,24]tetraen]-7′-yl)methyl)-1-piperazinyl)acetate] | – | – | 0.153 nM | IC50 [2, 6]: 146 nM
4 | C[C@@H]1[C@@H](C)C/C=C/[C@]2(CN(Cc3cccnc3)CCO2)[C@@H]2CC[C@H]2CN2C[C@@]3(CCCc4cc(Cl)ccc43)COc3ccc(cc32)C(=O)NS1(=O)=O [Example 137, (1S,3′R,6′R,7′R,8′E,11′S,12′R)-6-chloro-11′,12′-dimethyl-4″- (3-pyridinylmethyl)-3,4-dihydro-2H,15′H-dispiro[naphthalene-1,22′-[20]oxa[13]thia[1,14]diazatetracyclo [14.7.2.0~3,6~.0~19,24~]pentacosa[8,16,18,24]tetraene-7′,2″-[1,4]oxazinan]-15′-one 13′,13′-dioxide] | – | – | 4.74 nM | IC50 [2, 6]: 1150 nM
5 | Cc1nccnc1C[C@@]1(O)/C=C/C[C@H](C)[C@@H](C)S(=O)(=O)NC(=O)c2ccc3c(c2)N(C[C@@H]2CC[C@H]21)C[C@@]1(CCCc2cc(Cl)ccc21)CO3 [Example 100526, (1S,3′R,6′R,7′R,8′E,11′S,12′R)-6-chloro-7′-hydroxy-11′,12′-dimethyl-7′-((3-methyl-2-pyrazinyl)methyl)-3,4-dihydro-2H,15′H-spiro[naphthalene-1,22′-[20]oxa[13]thia[1,14]diazatetracyclo [14.7.2.0~3,6~.0~19,24~]pentacosa[8,16,18,24]tetraen]-15′-one 13′,13′-dioxide] | 0.387 nM | 826 nM | – | –
6 | COc1ncccc1[C@]1(OC)/C=C/C[C@H](C)[C@@H](C)S(=O)(=O)NC(=O)c2ccc3c(c2)N(C[C@@H]2CC[C@H]21)C[C@@]1(CCCc2cc(Cl)ccc21)CO3 [Example 100352, (1S,3′R,6′R,7′S,8′E,11′S,12′R)-6-chloro-7′-methoxy-7′-(2-methoxy-3-pyridinyl)-11′,12′-dimethyl-3,4-dihydro-2H,15′H-spiro[naphthalene-1,22′-[20]oxa[13]thia[1,14]diazatetracyclo [14.7.2.0~3,6~.0~19,24~]pentacosa[8,16,18,24]tetraen]-15′-one 13′,13′-dioxide] | 2.75 nM | 246 nM | – | –
7 | C[C@@H]1[C@@H](C)CCC[C@@](O)(CC(=O)N2CCOCC2)[C@@H]2CC[C@H]2CN2C[C@@]3(CCCc4cc(Cl)ccc43)COc3ccc(cc32)C(=O)NS1(=O)=O [Example 100086, (1S,3′R,6′R,7′R,11′S,12′R)-6-chloro-7′-hydroxy-11′,12′-dimethyl-7′-(2-(4-morpholinyl)-2-oxoethyl)-3,4-dihydro-2H,15′H-spiro[naphthalene-1,22′-[20]oxa[13]thia[1,14]diazatetracyclo [14.7.2.0~3,6~.0~19,24~]pentacosa[16,18,24]trien]-15′-one 13′,13′-dioxide] | 0.537 nM | 390 nM | – | –
8 | CO[C@]1(CN2CC[C@@H]3CCCC[C@H]3C2)/C=C/C[C@H](C)[C@@H](C)S(=O)(=O)NC(=O)c2ccc3c(c2)N(C[C@@H]2CC[C@H]21)C[C@@]1(CCCc2cc(Cl)ccc21)CO3 (single isomer, unassigned) [Example 90] | – | – | 4.66 nM | IC50 ([2]; read-out: OPM-2 10% FBS IC50 IP, OPM-2 cells, 10% FBS, 16 h incubation): 8980 nM
9 | COCC[C@@H]1[C@@H](C)C/C=C/[C@](CN2CCN3CCCC[C@@H]3C2)(OC)[C@@H]2CC[C@H]2CN2C[C@@]3(CCCc4cc(Cl)ccc43)COc3ccc(nc32)C(=O)NS1(=O)=O [Example 21, (1S,3′R,6′R,7′S,8′E,11′S,12′R)-6-chloro-7′-methoxy-12′-(2-methoxyethyl)-11′-methyl-7′-((9aR)-octahydro-2H-pyrido[1,2-a]pyrazin-2-ylmethyl)-3,4-dihydro-2H, 15′H-spiro[naphthalene-1,22′-[20]oxa[13]thia[1,14,25]triazatetracyclo[14.7.2.0˜3,6˜.0˜19,24˜]pentacosa[8,16,18,24]tetraen]-15′-one 13′,13′-dioxide] | – | – | 0.156 nM | IC50 [2, 6]: 47 nM
10 | CO[C@@]1(C#CCO)/C=C/C[C@H](C)[C@@H](C)S(=O)(=O)NC(=O)c2ccc3c(c2)N(C[C@@H]2CC[C@H]21)C[C@@]1(CCCc2cc(Cl)ccc21)CO3 [Example 100344, (1S,3′R,6′R,7′S,8′E,11′S,12′R)-6-chloro-7′-(3-hydroxy-1-propyn-1-yl)-7′-methoxy-11′,12′-dimethyl-3,4-dihydro-2H,15′H-spiro[naphthalene-1,22′-[20]oxa[13]thia[1,14]diazatetracyclo [14.7.2.0~3,6~.0~19,24~]pentacosa[8,16,18,24]tetraen]-15′-one 13′,13′-dioxide] | 0.309 nM | 290 nM | – | –
11 | C[C@@H]1[C@@H](C)C/C=C/[C@@](O)(CC(=O)N(C)c2ccccc2)[C@@H]2CC[C@H]2CN2C[C@@]3(CCCc4cc(Cl)ccc43)COc3ccc(cc32)C(=O)NS1(=O)=O [Example 100247, 2-((1S,3′R,6′R,7′S,8′E,11′S,12′R)-6-chloro-7′-hydroxy-11′,12′-dimethyl-13′,13′-dioxido-15′-oxo-3,4-dihydro-2H-spiro[naphthalene-1,22′-[20]oxa[13]thia[1,14]diazatetracyclo [14.7.2.0~3,6~.0~19,24~]pentacosa[8,16,18,24]tetraen]-7′-yl)-N-methyl-N-phenylacetamide] | 0.542 nM | 624 nM | – | –
12 | CCN(CC)C(=O)C[C@]1(O)/C=C/C[C@H](C)[C@@H](C)S(=O)(=O)NC(=O)c2ccc3c(c2)N(C[C@@H]2CC[C@H]21)C[C@@]1(CCCc2cc(Cl)ccc21)CO3 [Example 100083, 2-((1S,3′R,6′R,7′S,8′E,11′S,12′R)-6-chloro-7′-hydroxy-11′,12′-dimethyl-13′,13′-dioxido-15′-oxo-3,4-dihydro-2H-spiro[naphthalene-1,22′-[20]oxa[13]thia[1,14]diazatetracyclo [14.7.2.0~3,6~.0~19,24~]pentacosa[8,16,18,24]tetraen]-7′-yl)-N,N-diethylacetamide] | 0.179 nM | 123 nM | – | –
13 | C[C@@H]1[C@@H](C)C/C=C/[C@@](O)(C[S@@+](C)[O-])[C@@H]2CC[C@H]2CN2C[C@@]3(CCCc4cc(Cl)ccc43)COc3ccc(cc32)C(=O)NS1(=O)=O (stereo in doubt) [Example 100074] | 0.731 nM | 3020 nM | – | –
14 | CO[C@@]1(CC(=O)N(C)C(C)(C)C)/C=C/C[C@H](C)[C@@H](C)S(=O)(=O)NC(=O)c2ccc3c(c2)N(C[C@@H]2CC[C@H]21)C[C@@]1(CCCc2cc(Cl)ccc21)CO3 [Example 100008, 2-((1 S,3′R,6′R,7′S,8′E,11′S, 12′R)-6-chloro-7′-methoxy-11′,12′-dimethyl-13′,13′-dioxido-15′-oxo-3,4-dihydro-2H-spiro[naphthalene-1,22′-[20]oxa[13]thia[1,14]diazatetracyclo[14.7.2.0-3,6˜.0˜19,24˜]pentacosa[8,16,18,24]tetraen]-7′-yl)-N-methyl-N-(2-methyl-2-propanyl)acetamide] | 0.17 nM | 541 nM | – | –
15 | CO[C@]1(CN2CC(=O)N3CCCC[C@@H]3C2)/C=C/C[C@H](C)[C@@H](C)S(=O)(=O)NC(=O)c2ccc3c(c2)N(C[C@@H]2CC[C@H]21)C[C@@]1(CCCc2cc(Cl)ccc21)CO3 [Example 149] | – | – | 0.128 nM | IC50 [2, 6]: 119 nM
16 | CO[C@]1(CN2CCN3CCCC[C@@H]3C2)/C=C/C[C@H](C)[C@@H](CC2CCC2)S(=O)(=O)NC(=O)c2ccc3c(c2)N(C[C@@H]2CC[C@H]21)C[C@@]1(CCCc2cc(Cl)ccc21)CO3 [Example 40, (1S,3′R,6′R,7′R,8′E,11′S,12′R)-6-chloro-12′-(cyclobutylmethyl)-7′-methoxy-11′-methyl-7′-((9aR)-octahydro-2H-pyrido[1,2-a]pyrazin-2-ylmethyl)-3,4-dihydro-2H,15′H-spiro[naphthalene-1,22′-[20]oxa[13]thia[1,14]diazatetracyclo [14.7.2.0~3,6~.0~19,24~]pentacosa[8,16,18,24]tetraen]-15′-one 13′,13′-dioxide] | – | – | 0.444 nM | IC50 [2, 6]: 571 nM
17 | C[C@@H]1[C@@H](C)CCC[C@](O)(C[C@H]2CCCN(C)C2)[C@@H]2CC[C@H]2CN2C[C@@]3(CCCc4cc(Cl)ccc43)COc3ccc(cc32)C(=O)NS1(=O)=O (single isomer, unassigned) [Example 100399] | 0.28 nM | 2810 nM | – | –

Reference: patent publication US10821115B2, “Compounds that inhibit Mcl-1 protein” (priority 2017, dated 2020)
